Assay results taken from the supplement of paper PMC10307832.

Experiments:
Experiment in all cases: relative viability (nuclei count vs DMSO), 5 days (fraction); higher = more cells survive
Dovitinib + Trametinib = compound: CN1CCN(c2ccc3nc(-c4c(N)c5c(F)cccc5[nH]c4=O)[nH]c3c2)CC1 [Dovitinib] + CC(=O)Nc1cccc(-n2c(=O)n(C3CC3)c(=O)c3c(Nc4ccc(I)cc4F)n(C)c(=O)c(C)c32)c1 [Trametinib] (partner 0.02 µM)
Summary of the method: (§1)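 Relative viability is defined as nuclei in treated wells over nuclei in vehicle wells. Duplicate plates were run and medians reported. Lung cancer cell lines in 1536-well plates were dosed by pin tool one day after seeding, with one drug or with a fixed anchor-drug dose plus five library-drug doses (not always all listed) in √10 steps, and nuclei were counted after 5 days.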

Dovitinib + Bortezomib = compound: CN1CCN(c2ccc3nc(-c4c(N)c5c(F)cccc5[nH]c4=O)[nH]c3c2)CC1 [Dovitinib] + CC(C)C[C@H](NC(=O)[C@H](Cc1ccccc1)NC(=O)c1cnccn1)B(O)O [Bortezomib] (partner 0.002 µM)
Summary of the method: as §1

Dovitinib + Pictilisib = compound: CN1CCN(c2ccc3nc(-c4c(N)c5c(F)cccc5[nH]c4=O)[nH]c3c2)CC1 [Dovitinib] + CS(=O)(=O)N1CCN(Cc2cc3nc(-c4cccc5[nH]ncc45)nc(N4CCOCC4)c3s2)CC1 [Pictilisib] (partner 1 µM)
Summary of the method: as §1

Dovitinib + Olaparib = compound: CN1CCN(c2ccc3nc(-c4c(N)c5c(F)cccc5[nH]c4=O)[nH]c3c2)CC1 [Dovitinib] + O=C(c1cc(Cc2n[nH]c(=O)c3ccccc23)ccc1F)N1CCN(C(=O)C2CC2)CC1 [Olaparib] (partner 8 µM)
Summary of the method: as §1

Cell Line	relative viability (Dovitinib + Trametinib; first compound 0.02 µM)	relative viability (Dovitinib + Trametinib; first compound 0.06325 µM)	relative viability (Dovitinib + Trametinib; first compound 0.2 µM)	relative viability (Dovitinib + Trametinib; first compound 0.6325 µM)	relative viability (Dovitinib + Trametinib; first compound 2 µM)	relative viability (Dovitinib + Bortezomib; first compound 0.02 µM)	relative viability (Dovitinib + Bortezomib; first compound 0.06325 µM)	relative viability (Dovitinib + Bortezomib; first compound 0.2 µM)	relative viability (Dovitinib + Bortezomib; first compound 0.6325 µM)	relative viability (Dovitinib + Bortezomib; first compound 2 µM)	relative viability (Dovitinib + Pictilisib; first compound 0.02 µM)	relative viability (Dovitinib + Pictilisib; first compound 0.06325 µM)	relative viability (Dovitinib + Pictilisib; first compound 0.2 µM)	relative viability (Dovitinib + Pictilisib; first compound 0.6325 µM)	relative viability (Dovitinib + Pictilisib; first compound 2 µM)	relative viability (Dovitinib + Olaparib; first compound 0.02 µM)	relative viability (Dovitinib + Olaparib; first compound 0.06325 µM)	relative viability (Dovitinib + Olaparib; first compound 0.2 µM)	relative viability (Dovitinib + Olaparib; first compound 0.6325 µM)	relative viability (Dovitinib + Olaparib; first compound 2 µM)
NCI-H2023	0.549	0.493	0.405	0.5	0.537	0.994	0.963	1.24	0.995	0.886	0.216	0.206	0.236	0.261	0.212	0.454	0.487	0.541	0.432	0.482
NCI-H2085	0.534	0.628	0.599	0.528	0.627	1.05	1.1	1.03	1.21	1.06	0.553	0.465	0.443	0.502	0.451	0.731	0.828	0.723	0.762	0.758
NCI-H2087	0.274	0.221	0.251	0.196	0.214	0.756	1.07	0.805	0.899	0.86	1.05	0.907	0.845	0.907	0.892	0.631	0.519	0.604	0.571	0.689
NCI-H2126	0.576	0.56	0.569	0.598	0.522	1.11	1.09	1.2	1.08	1.07	0.476	0.462	0.463	0.559	0.504	0.871	0.934	0.92	0.936	0.878
NCI-H2228	0.652	0.467	0.454	0.507	0.488	0.845	0.952	0.827	0.897	0.875	0.317	0.345	0.335	0.462	0.271	0.689	0.592	0.866	0.768	0.573
NCI-H2347	0.284	0.289	0.286	0.277	0.271	1.18	0.935	0.907	1.43	1.09	0.888	0.676	0.947	0.895	0.677	0.568	0.59	0.621	0.641	0.606
NCI-H2405	0.757	0.56	0.692	0.597	0.738	0.871	0.972	1	1.08	0.969	0.431	0.372	0.458	0.456	0.408	0.858	0.849	0.944	0.815	0.903
NCI-H3122	0.217	0.226	0.231	0.234	0.248	0.984	0.977	1.03	1.05	1.01	0.793	0.588	0.47	0.603	0.66	0.623	0.619	0.663	0.56	0.536
PC-3 [JPC-3]	0.767	0.675	0.731	0.738	0.715	0.849	0.803	0.899	0.872	0.88	0.742	0.75	0.818	0.897	0.877	1.16	1.16	1.14	1.13	1.15
PC-14	0.743	0.795	0.822	0.696	0.86	0.796	0.906	0.834	0.808	0.819	0.632	0.72	0.685	0.691	0.543	0.291	0.276	0.27	0.217	0.247
RERF-LC-KJ	0.928	0.837	1.01	0.869	0.864	1.11	1.14	1.14	1.06	0.997	0.556	0.643	0.472	0.428	0.49	0.932	0.892	0.939	0.982	0.896
SK-LU-1	0.429	0.516	0.491	0.551	0.52	0.977	0.993	1.06	1.28	1.26	0.64	0.657	0.513	0.73	0.576	0.418	0.487	0.446	0.501	0.452
SW 1573	0.579	0.617	0.563	0.551	0.592	0.985	1.06	0.997	1.08	1.03	0.487	0.545	0.483	0.382	0.512	0.512	0.525	0.593	0.446	0.507
UMC-11	0.742	0.69	0.793	0.669	0.767	0.77	0.669	0.881	0.81	0.668	0.806	0.783	0.85	0.85	0.735	0.334	0.352	0.383	0.387	0.435
